Results taken from patent US7071341B2, “α-Glucosidase inhibitors and their synthesis from a natural source” (Council of Scientific and Industrial Research, priority 2003, dated 2006).
“Also recorded” adds a separate entry of the source.

What was measured:
yeast α-glucosidase = assay: α-glucosidase inhibitory assay by the chromogenic method; assay type: biochemical; details: for IC50: yeast α-glucosidase [Sigma], substrate p-nitrophenyl-α-D-glucopyranoside, pH 7.00, absorbance at 405 nm; for α-glucosidase inhibitory potency compared with the standard drug 1-deoxy nojirimycin: comparison in words
Experimental: The α-glucosidase inhibitory assay was done by the chromogenic method. In brief 10 μl of test compounds dissolved in DMSO (5 mg/ml and subsequent dilutions) were incubated for 5 min. with 50 μl of yeast α-glucosidase [Sigma] enzyme prepared in 100 mM phosphate buffer (pH 7.00). After 5 minutes of incubation, 50 μl of 5 mM substrate (p-nitrophenyl-α-D-glucopyranoside [Sigma] prepared in the same buffer) was added. The pre-substrate and 5-min post-substrate addition absorbances were recorded at 405 nm spectrophotometrically. The increase in absorbance from pre-substrates addition to post substrates reaction were obtained.

Compound	IC50 (yeast α-glucosidase)	melting point	further results
Oc1ccc(C2Oc3c(ccc(O)c3O)CC2O)cc1O (single isomer, unassigned; (-)) [Compound 1, (−)-mesquitol]	82.3 µM	252 °C	α-glucosidase inhibitory activity, in words (yeast α-glucosidase): potent α-glucosidase inhibitory activity
CC(=O)OC1Cc2ccc(O)c(O)c2OC1c1ccc(O)c(O)c1 (single isomer, unassigned; (-)) [Compound 4a, (−)-3-O-acetyl mesquitol]	46.3 µM	78 °C	
CCCC(=O)OC1Cc2ccc(O)c(O)c2OC1c1ccc(O)c(O)c1 (single isomer, unassigned; (-)) [Compound 4b, (−)-3-O-butyryl mesquitol]	46.2 µM	80 °C	
CCCCCC(=O)OC1Cc2ccc(O)c(O)c2OC1c1ccc(O)c(O)c1 (single isomer, unassigned; (-)) [Compound 4c, (−)-3-O-hexanoyl mesquitol]	49.3 µM	81 °C	
CCCCCCCCCCCCCCCCCC(=O)OC1Cc2ccc(O)c(O)c2OC1c1ccc(O)c(O)c1 (single isomer, unassigned; (-)) [Compound 4g, (−)-3-O-Steroyl mesquitol]	54.5 µM	90 °C	
O=C(OC1Cc2ccc(O)c(O)c2OC1c1ccc(O)c(O)c1)c1ccccc1 (single isomer, unassigned; (-)) [Compound 4h, (−)-3-O-benzoyl mesquitol]	77.8 µM	248 °C	α-glucosidase inhibitory potency compared with the standard drug 1-deoxy nojirimycin (yeast α-glucosidase; listed as benzoyl ester of (−) mesquitol): more potent α-glucosidase inhibitor than the standard drug 1-deoxy nojirimycin
COc1ccc(C(=O)OC2Cc3ccc(O)c(O)c3OC2c2ccc(O)c(O)c2)cc1 (single isomer, unassigned; (-)) [Compound 4j, (−)-3-O-(p-methoxybenzoyl) mesquitol]	67.3 µM	254 °C	

Compounds with a lower IC50 (yeast α-glucosidase), results first:

IC50 (yeast α-glucosidase)	melting point	Compound	further results
43.3 µM	252 °C	O=C(OC1Cc2ccc(O)c(O)c2OC1c1ccc(O)c(O)c1)c1ccccc1Cl (single isomer, unassigned; (-)) [Compound 4I, (−)-3-O-(o-chlorobenzoyl) mesquitol]	
32.8 µM		O=C(O[C@H]1Cc2ccc(O)c(O)c2O[C@@H]1c1ccc(O)c(O)c1)c1ccc(F)cc1 [Compound 4k, (−)-3-O-(p-flourobenzoyl) mesquitol]	α-glucosidase inhibitory potency compared with the standard drug 1-deoxy nojirimycin (yeast α-glucosidase; listed as p-flourobenzyl ester of (−) mesquitol): more potent α-glucosidase inhibitor than the standard drug 1-deoxy nojirimycin
13.5 µM		CCCCCCCCCC(=O)O[C@H]1Cc2ccc(O)c(O)c2O[C@@H]1c1ccc(O)c(O)c1 [Compound 4d, (−)-3-O-Decanoyl mesquitol]	α-glucosidase inhibitory potency compared with the standard drug 1-deoxy nojirimycin (yeast α-glucosidase; listed as decanoyl ester of (−) mesquitol): more potent α-glucosidase inhibitors than the standard drug 1-deoxy nojirimycin; also recorded: more potent than the standard α-glucosidase inhibitor 1-deoxy nojirimycin
12.6 µM	83 °C	CCCCCCCCCCCCCC(=O)OC1Cc2ccc(O)c(O)c2OC1c1ccc(O)c(O)c1 (single isomer, unassigned; (-)) [Compound 4e, (−)-3-O-myristoyl mesquitol]	α-glucosidase inhibitory potency compared with the standard drug 1-deoxy nojirimycin (yeast α-glucosidase; listed as myristoyl ester of (−) mesquitol): more potent α-glucosidase inhibitors than the standard drug 1-deoxy nojirimycin; also recorded: more potent than the standard α-glucosidase inhibitor 1-deoxy nojirimycin
9.56 µM	87 °C	CCCCCCCCCCCCCCCC(=O)OC1Cc2ccc(O)c(O)c2OC1c1ccc(O)c(O)c1 (single isomer, unassigned; (-)) [Compound 4f, (−)-3-O-Palmitoyl mesquitol]	α-glucosidase inhibitory potency compared with the standard drug 1-deoxy nojirimycin (yeast α-glucosidase; listed as palmitoyl ester of (−) mesquitol): more potent α-glucosidase inhibitors than the standard drug 1-deoxy nojirimycin; also recorded: more potent than the standard α-glucosidase inhibitor 1-deoxy nojirimycin
